In patent US12649712B2, “Indene compounds, pharmaceutical compositions thereof, and their therapeutic applications” (NucMito Pharmaceuticals Co. Ltd., priority 2020, dated 2026) one finds inhibition data, which are given here for 24 compounds.

A value given as a limit tells only on which side of the number the result lay.

This test concerns alpha-smooth muscle actin (α-SMA). As to the kind of experiment: Inhibition of TGF-β induced expression of alpha-smooth muscle actin (α-SMA) in CFSC cells, western blot. The format is cell-based. Conditions: compound at 10 μM, TGF-β (10 ng/mL), 24 hours, decrease in band intensity vs TGF-β only. As to the method:
The ability of a compound to inhibit the TGF-β induced expression of alpha-smooth muscle actin (α-SMA) was evaluated in CCL4-treated fat storing (CFSC) cells. α-SMA is considered as a reliable marker of hepatic stellate cell activation and a key biomarker for liver fibrosis. See, e.g., Meng et al., Nat. Rev. Nephrol. 2016, 12, 325-38; Fabregat et al., FEBS J. 2016, 283, 2219-32.
CFSC cells maintained in a DMEM medium supplemented with 10% fetal bovine serum were seeded to 12-well culture dishes and grown to a confluence of 60-70% the next day. Culture was changed to a serum-free DMEM medium and treated with a compound at 10 μM in the presence of TGF-β (10 ng/mL). The cells were incubated for another 24 hours. All culture was maintained at 37° C. in 5% carbon dioxide.
A NP-40 lysate solution (50 mM Tris (pH 7.4), 150 mM NaCl, 1% NP-40) with EDTA free cocktail added was used to lyse the cells on ice for 30 min. The lysate was collected and centrifuged at 4° C. for 10 min at 12,000 rpm. The pellet was discarded and the supernatant was transferred to a new tube. Cell lysates were loaded with 5×loading buffer and boiled for 10 min, resolved by 10% SDS-polyacrylamide gel electrophoresis (SDS-PAGE), and transferred to PVDF membrane. The membrane was blocked with 5% skim milk in Tris-buffered saline and TWEEN® 20 (TBST; 10 mM Tris-HCl (pH 8.0), 150 mM NaCl, 0.1% TWEEN® 20) for 1 h at room temperature and then incubated with α-SMA and […] antibodies overnight at 4° C. After washing twice with TBST, the membrane was probed with a horseradish […] anti-immunoglobulin (1:5000 dilution) for 1 h at room temperature. After two subsequent rinses in TBST, immunoreactive products were reacted with ECL and visualized by a UVP CHEMSTUDIO™ imaging system. The western blotting bands are quantitated using an ImageJ software. The percentage of inhibition was obtained by calculating the percentage decrease in the band intensity compared to the one treated with TGF-β only.
The results are summarized in Table 1, wherein A represents a value no less of 90% inhibition, B represents a value less than 90% but no less than 80% inhibition, C represents a value less than 80% but no less than 70% inhibition, D represents a value less than 70% but no less than 50% inhibition, and E represents a value less than 50% with a compound at 10 μM.
`CCN(c1ccc(F)cc1)c1ccc(/C=C2/C(C)=C(CC(=O)O)c3cc(F)ccc32)cc1` [Compound A32, 2-[(1Z)-1-({4-[Ethyl(4-fluorophenyl)amino]phenyl}methylidene)-5-fluoro-2-methyl-1H-inden-3-yl]acetic acid] gave an inhibition at 10 µM above 90%.
Take `CCCN(c1ccc(F)cc1)c1ccc(/C=C2/C(C)=C(CC(=O)O)c3cc(F)ccc32)cc1` [Compound A33, 2-[(1Z)-5-Fluoro-1-({4-[(4-fluorophenyl)(propyl)amino]phenyl}methylidene)-2-methyl-1H-inden-3-yl]acetic acid]: the inhibition at 10 µM lay within 70 to 80%.
In turn, `CC1=C(CC(=O)O)c2cc(F)ccc2/C1=C\c1ccc(N(CCO)c2ccc(F)cc2)cc1` [Compound A34, 2-[(1Z)-5-Fluoro-1-({4-[(4-fluorophenyl)(2-hydroxyethyl)amino]phenyl}-methylidene)-2-methyl-1H-inden-3-yl]acetic acid] came in with an inhibition at 10 µM above 90%.
On to `CC1=C(CC(=O)O)c2cc(F)ccc2/C1=C\c1ccc(N(c2ccc(F)cc2)c2ccc(C=O)cc2)cc1` [Compound A35, 2-[(1Z)-5-Fluoro-1-({4-[(4-fluorophenyl)(4-formylphenyl)amino]phenyl}-methylidene)-2-methyl-1H-inden-3-yl]acetic acid], for which the inhibition at 10 µM is above 90%.
As for `CC1=C(CC(=O)O)c2cc(F)ccc2/C1=C\c1ccc(N(c2ccccc2)c2ccc(C=O)cc2)cc1` [Compound A36, 2-[(1Z)-5-Fluoro-1-({4-[(4-formylphenyl)(phenyl)amino]phenyl}methylidene)-2-methyl-1H-inden-3-yl]acetic acid], the inhibition at 10 µM was above 90%.
The compound `CC1=C(CC(=O)NO)c2cc(F)ccc2/C1=C\c1ccc(N(Cc2ccccc2)c2ccc(F)cc2)cc1` [Compound A38, 2-[(1Z)-1-({4-[Benzyl(4-fluorophenyl)amino]phenyl}methylidene)-5-fluoro-2-methyl-1H-inden-3-yl]-N-hydroxyacetamide] showed an inhibition at 10 µM of 70 to 80%.
As for `CC1=C(Cc2nnn[nH]2)c2ccccc2/C1=C\c1cccc(Oc2ccccc2)c1` [Compound A39, 5-{[(1Z)-2-Methyl-1-[(3-phenoxyphenyl)methylidene]-1H-inden-3-yl]methyl}-1H-1,2,3,4-tetrazole], the inhibition at 10 µM was above 90%.
In the case of `CC1=C(Cc2nnn[nH]2)c2ccccc2/C1=C\c1ccc(Oc2ccccc2)cc1` [Compound A40, 5-{[(1Z)-2-Methyl-1-[(4-phenoxyphenyl)methylidene]-1H-inden-3-yl]methyl}-1H-1,2,3,4-tetrazole] it was above 90%.
`CC1=C(CCc2nnn[nH]2)c2ccccc2/C1=C\c1ccc(Oc2ccc(Br)cc2)cc1` [Compound A42, 5-{2-[(1Z)-1-{[4-(4-Bromophenoxy)phenyl]methylidene}-2-methyl-1H-inden-3-yl]ethyl}-1H-1,2,3,4-tetrazole] showed an inhibition at 10 µM of 70 to 80%.
In the case of `CC1=C(CCc2nnn[nH]2)c2ccccc2/C1=C\c1ccc(Oc2ccc(C(C)C)cc2)cc1` [Compound A43, 5-{2-[(1Z)-2-Methyl-1-({4-[4-(propan-2-yl)phenoxy]phenyl}methylidene)-1H-inden-3-yl]ethyl}-1H-1,2,3,4-tetrazole] it was above 90%; in that of `CC1=C(CCc2nnn[nH]2)c2ccccc2/C1=C\c1ccc(Oc2ccc(C(F)(F)F)cc2)cc1` [Compound A45, 5-{2-[(1Z)-2-Methyl-1-({4-[4-(trifluoromethyl)phenoxy]phenyl}methylidene)-1H-inden-3-yl]ethyl}-1H-1,2,3,4-tetrazole], above 90%.
With `CC1=C(CCc2nnn[nH]2)c2ccccc2/C1=C\c1ccc(Oc2cccc(C)c2)cc1` [Compound A46, 5-{2-[(1Z)-2-Methyl-1-{[4-(3-methylphenoxy)phenyl]methylidene}-1H-inden-3-yl]ethyl}-1H-1,2,3,4-tetrazole], the inhibition at 10 µM is above 90%.
For `CC1=C(CCc2nnn[nH]2)c2ccccc2/C1=C\c1ccc(Oc2cccc(C#N)c2)cc1` [Compound A47, 3-(4-{[(1Z)-2-Methyl-3-[2-(1H-1,2,3,4-tetrazol-5-yl)ethyl]-1H-inden-1-ylidene]methyl}phenoxy)benzonitrile], the inhibition at 10 µM was above 90%.
The result for `COc1cccc(Oc2ccc(/C=C3/C(C)=C(CCc4nnn[nH]4)c4ccccc43)cc2)c1` [Compound A48, 5-{2-[(1Z)-1-{[4-(3-Methoxyphenoxy)phenyl]methylidene}-2-methyl-1H-inden-3-yl]ethyl}-1H-1,2,3,4-tetrazole] reads above 90%; that for `CC1=C(CCc2nnn[nH]2)c2ccccc2/C1=C\c1ccc(Oc2ccc3ccccc3c2)cc1` [Compound A51, 5-{2-[(1Z)-2-Methyl-1-{[4-(naphthalen-2-yloxy)phenyl]methylidene}-1H-inden-3-yl]ethyl}-1H-1,2,3,4-tetrazole], above 90%; that for `C1=C(Cc2nnn[nH]2)c2ccccc2/C1=C/c1cccc(Oc2ccccc2)c1` [Compound A54, 5-{[(1E)-1-[(3-Phenoxyphenyl)methylidene]-1H-inden-3-yl]methyl}-1H-1,2,3,4-tetrazole], above 90%.
The result for `CC1=C(CC(=O)O)c2cc(F)ccc2/C1=C\c1ccc(N2CCOCC2)cc1` [Compound A55, 2-[(1Z)-5-Fluoro-2-methyl-1-{[4-(morpholin-4-yl)phenyl]methylidene}-1H-inden-3-yl]acetic acid] reads below 50%.
The result for `CC1=C(CC(=O)O)c2cc(F)ccc2/C1=C\c1ccc(-n2cccc2)cc1` [Compound A60, 2-[(1Z)-5-Fluoro-2-methyl-1-{[4-(1H-pyrrol-1-yl)phenyl]methylidene}-1H-inden-3-yl]acetic acid] reads below 50%; that for `CC1=C(CC(=O)O)c2c(ccc(F)c2F)/C1=C\c1ccc(Oc2ccc(F)cc2)cc1` [Compound A68, 2-[(1Z)-4,5-Difluoro-1-{[4-(4-fluorophenoxy)phenyl]methylidene}-2-methyl-1H-inden-3-yl]acetic acid], above 90%.
`CC1=C(CC(=O)O)c2c(ccc(F)c2C)/C1=C\c1ccc(Oc2ccc(F)cc2)cc1` [Compound A69, 2-[(1Z)-5-Fluoro-1-{[4-(4-fluorophenoxy)phenyl]methylidene}-2,4-dimethyl-1H-inden-3-yl]acetic acid] yielded an inhibition at 10 µM above 90%.
`CC1=C(CC(=O)NO)c2cc(F)ccc2/C1=C\c1ccc(N(CCO)c2ccc(F)cc2)cc1` [Compound A85, 2-[(1Z)-5-Fluoro-1-({4-[(4-fluorophenyl)(2-hydroxyethyl)amino]phenyl}-methylidene)-2-methyl-1H-inden-3-yl]-N-hydroxyacetamide] showed an inhibition at 10 µM above 90%.
For `CC1=C(CC(=O)O)c2cc(F)ccc2/C1=C\c1ccc(C(C)(C)C)cc1` [Compound B10, (Z)-2-(5-fluoro-2-methyl-1-(4-t-butylbenzylidene)-1H-inden-3-yl)acetic acid], the inhibition at 10 µM was in the range of 70 to 80%.
`CC1=C(CCc2nnn[nH]2)c2ccccc2/C1=C\c1ccc(C(C)C)cc1` [Compound B30, (Z)-5-(2-(1-(4-isopropylbenzylidene)-2-methyl-1H-inden-3-yl)ethyl)-1H-tetrazole] gave an inhibition at 10 µM above 90%.
In the case of `CC1=C(CC(=O)O)c2cc(F)ccc2/C1=C\c1ccc2ccccc2c1` [Compound B34, 2-[(1Z)-5-fluoro-2-methyl-1-[(naphthalen-2-yl)methylidene]-1H-inden-3-yl]acetic acid] it was above 90%.

Usually inhibition stands for the relative decrease from the control value, in per cent.
